Test results taken from patent US6693115B2, “Acid addition salts of hydropyridine derivatives” (Sankyo Company, Limited, priority 2000, dated 2004).

Tests used:
[1] = system: ADP-induced platelet aggregation; assay: Inhibitory effect on platelet aggregation (feeding), ex vivo PRP after oral administration; type: in vivo, male beagle dogs; details: fed dogs, oral 0.3 mg/kg, ADP 20 μM, mean ± standard deviation; for Inhibition (%) of platelet aggregation 2 hours: 2 hours after administration; for Inhibition (%) of platelet aggregation 4 hours: 4 hours after administration
Protocol: Inhibitory Effect on Platelet Aggregation (Feeding)
For this test, male beagle dogs (about 10 kg in body weight, purchased from Kasho Co., Ltd. and Nippon Nosan Kogyo K.K.) were used. One group consisted of 5 or 6 dogs. The platelet aggregation was measured using an automatic platelet aggregometer (“PAM-6C”, trade name; a product of Mebanix Corporation) in accordance with the method of Born, et al. (J. Physiol., 168, 178 (1963)) with a partial modification.
Each of 2.5 hours and 4.5 hours after feeding, 5.4 ml of blood was collected from the cephalic vein of each dog using sodium citrate (0.6 ml, 3.8% (w/v)) as an anticoagulant. The citrate-added blood was centrifuged (240 g, 20 minutes) to separate platelet-rich plasma (hereinafter referred to as “PRP”) and platelet-poor plasma (hereinafter referred to as “PPP”). After the number of platelets in PRP was counted by an automatic hematology analyzer (“K-1000”, trade name; a product of Sysmex Corporation), PPP was added to adjust the number of platelets to 3×10^8/ml. PRP (240 μl) dispensed in a cuvette was set on the automatic platelet aggregometer. After preheating (at 37° C.) for 1 minute, 10 μl of ADP (final concentration: 20 μM) was added to cause platelet aggregation. For 10 minutes, platelet aggregation was measured and the maximum aggregation was determined to give the pre-administration value.
(§1) On the next day, 30 minutes after feeding, each test compound filled in a gelatin capsule was orally administered to the dogs. The blood was collected each of 2 and 4 hours after the administration. The platelet aggregation of PRP was measured, whereby the maximum aggregation was determined. The inhibition (%) of platelet aggregation by the test compound was calculated by comparing it with the pre-administration value.
In these tables, the term “hydrochloride” means 2-acetoxy-5-(α-cyclopropylcarbonyl-2-fluorobenzyl)-4,5,6-7-tetrahydrothieno[3,2-c]pyridine hydrochloride obtained in Example 1, “free form” means 2-acetoxy-5-(α-cyclopropylcarbonyl-2-fluorobenzyl)-4,5,6,7-tetrahydrothieno[3,2-c]pyridine, and “maleate” means 2-acetoxy-5-(α-cyclopropylcarbonyl-2-fluorobenzyl)-4,5,6,7-tetrahydrothieno[3,2-c]pyridine maleate obtained in Example 2.

[2] = system: ADP-induced platelet aggregation; assay: Inhibitory effect on platelet aggregation (fasting), ex vivo PRP after oral administration; type: in vivo, male beagle dogs; details: Table 4, fasted dogs, oral 1.0 mg/kg, ADP 20 μM, mean ± standard deviation; for Inhibition (%) of platelet aggregation 2 hours: 2 hours after administration; for Inhibition (%) of platelet aggregation 4 hours: 4 hours after administration
Protocol: Inhibitory Effect on Platelet Aggregation (Fasting)
For this test, male beagle dogs (about 10 kg in body weight, purchased from Kasho Co., Ltd. and Nippon Nosan Kogyo K.K.) were used. One group consisted of 3 dogs. The platelet aggregation was measured using an automated platelet aggregometer (“PAM-6C”, trade name; a product of Mebanix Corporation) in accordance with the method of Born, et al. (J. Physiol., 168, 178(1963)) with a partial modification.
From the cephalic vein of each dog fasted overnight, 5.4 ml of the blood was collected using sodium citrate (0.6 ml, 3.8% (w/v)) as an anticoagulant. The resulting citrate-added blood was centrifuged (240 g, 20 minutes) to separate platelet-rich plasma (hereinafter referred to as “PRP”) and platelet-poor plasma (hereinafter referred to as “PPP”). After the number of platelets in PRP was counted by an automatic hematology analyzer (“K-1000”, trade name; a product of Sysmex Corporation), PPP was added to adjust the number of platelets to 3×10^8/ml. PRP (240 μl) dispensed in a cuvette was set on the automatic platelet aggregometer. After preheating (at 37° C.) for 1 minute, 10 μl of ADP (final concentration: 20 μM) was added to cause platelet aggregation. For 10 minutes, platelet aggregation was measured and the maximum aggregation was determined to give the pre-administration value.
as §1, with “day,” for “day, 30 minutes after feeding,”, “after” for “after the”
In this table, the term “maleate” means 2-acetoxy-5-(α-cyclopropylcarbonyl-2-fluorobenzyl)-4,5,6,7-tetrahydrothieno[3,2-c]pyridine maleate obtained in Example 2, while the term “free form” means 2-acetoxy-5-(α-cyclopropylcarbonyl-2-fluorobenzyl)-4,5,6,7-tetrahydrothieno[3,2-c]pyridine.

[3] = Storage stability of crystal forms; type: physicochemical; details: comparison between hydrochloride crystal forms

Row | Compound | Inhibition (%) of platelet aggregation 2 hours ([1]; Table 2) | Inhibition (%) of platelet aggregation 4 hours ([1]; Table 2) | Inhibition (%) of platelet aggregation 2 hours ([1]; Table 3) | Inhibition (%) of platelet aggregation 4 hours ([1]; Table 3) | Inhibition (%) of platelet aggregation 2 hours [2] | Inhibition (%) of platelet aggregation 4 hours [2] | storage stability [3]
1 | CC(=O)Oc1cc2c(s1)CCN(C(C(=O)C1CC1)c1ccccc1F)C2 (stereo not drawn) [Free form, 2-Acetoxy-5-(α-cyclopropylcarbonyl-2-fluorobenzyl)-4,5,6,7-tetrahydrothieno[3,2-c]pyridine, reference compound] | 25.8 ± 10.9% | 28.6 ± 14.2% | 21.7 ± 9.8% | 23.8 ± 12.6% | 27.9 ± 24.8% | 28.7 ± 24.4% | –
2 | CC(=O)Oc1cc2c(s1)CCN(C(C(=O)C1CC1)c1ccccc1F)C2.Cl (stereo not drawn) [Hydrochloride, 2-Acetoxy-5-(α-cyclopropylcarbonyl-2-fluorobenzyl)-4,5,6,7-tetrahydrothieno[3,2-c]pyridine hydrochloride (crystal A)] | 49.0 ± 18.7% | 48.5 ± 18.3% | – | – | – | – | –
3 | CC(=O)Oc1cc2c(s1)CCN(C(C(=O)C1CC1)c1ccccc1F)C2.O=C(O)/C=C\C(=O)O (stereo not drawn) [Maleate, 2-Acetoxy-5-(α-cyclopropylcarbonyl-2-fluorobenzyl)-4,5,6,7-tetrahydrothieno[3,2-c]pyridine maleate] | – | – | 50.9 ± 14.5% | 58.6 ± 15.7% | 63.4 ± 22.9% | 88.5 ± 5.7% | –
4 | CC(=O)Oc1cc2c(s1)CCN(C(C(=O)C1CC1)c1ccccc1F)C2.Cl (stereo not drawn) [crystal B1, 2-Acetoxy-5-(α-cyclopropylcarbonyl-2-fluorobenzyl)-4,5,6,7-tetrahydrothieno[3,2-c]pyridine Hydrochloride (Crystal B1)] | – | – | – | – | – | – | more excellent storage stability than crystal A
5 | CC(=O)Oc1cc2c(s1)CCN(C(C(=O)C1CC1)c1ccccc1F)C2.Cl (stereo not drawn) [crystal B2, 2-Acetoxy-5-(α-cyclopropylcarbonyl-2-fluorobenzyl)-4,5,6,7-tetrahydrothieno[3,2-c]pyridine hydrochloride (crystal B2)] | – | – | – | – | – | – | more excellent storage stability than crystal B1
